Reference: PubChem BioAssay AID2060901 (Molecular Pharmacology Branch, DTP, NCI, 2025)
Where “and” joins values, the source holds several entries; their conditions need not be identical. Identical values can stand only once. Each block holds one compound with its values, some of them ahead of it.

Test system: 422866-222-R5-J1-PDC complex spheroids viability
Assay: Anticancer human tumor 422866-222-R5-J1-PDC patient-derived pancreatic adenocarcinoma cell line growth inhibition [RAS]
Details: for viability, T/C: stronger effect = lower value
How it was run: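 Tumour cells grown as complex spheroids with HUVEC endothelial cells and mesenchymal stem cells, treated with RAS pathway inhibitor combinations. Each agent spans half-log steps from near clinical Cmax, or 10 microM where Cmax is unknown.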

[1] = curve of first compound, second compound 0.000949 µM
[2] = curve of first compound, second compound 0.003 µM
[3] = curve of first compound, second compound 0.00949 µM
[4] = curve of first compound, second compound 0.03 µM
[5] = curve of first compound, second compound 0.0949 µM
[6] = curve of first compound, second compound 0.3 µM
[7] = second compound 0.000949 µM, first compound 0.0316 µM
[8] = second compound 0.000949 µM, first compound 0.1 µM
[9] = second compound 0.000949 µM, first compound 0.316 µM
[10] = second compound 0.000949 µM, first compound 1 µM
[11] = second compound 0.000949 µM, first compound 3.16 µM
[12] = second compound 0.000949 µM, first compound 10 µM
[13] = second compound 0.003 µM, first compound 0.0316 µM
[14] = second compound 0.003 µM, first compound 0.1 µM
[15] = second compound 0.003 µM, first compound 0.316 µM
[16] = second compound 0.003 µM, first compound 1 µM
[17] = second compound 0.003 µM, first compound 3.16 µM
[18] = second compound 0.003 µM, first compound 10 µM
[19] = second compound 0.00949 µM, first compound 0.0316 µM
[20] = second compound 0.00949 µM, first compound 0.1 µM
[21] = second compound 0.00949 µM, first compound 0.316 µM
[22] = second compound 0.00949 µM, first compound 1 µM
[23] = second compound 0.00949 µM, first compound 3.16 µM
[24] = second compound 0.00949 µM, first compound 10 µM
[25] = second compound 0.03 µM, first compound 0.0316 µM
[26] = second compound 0.03 µM, first compound 0.1 µM
[27] = second compound 0.03 µM, first compound 0.316 µM
[28] = second compound 0.03 µM, first compound 1 µM
[29] = second compound 0.03 µM, first compound 3.16 µM
[30] = second compound 0.03 µM, first compound 10 µM
[31] = second compound 0.0949 µM, first compound 0.0316 µM
[32] = second compound 0.0949 µM, first compound 0.1 µM
[33] = second compound 0.0949 µM, first compound 0.316 µM
[34] = second compound 0.0949 µM, first compound 1 µM
[35] = second compound 0.0949 µM, first compound 3.16 µM
[36] = second compound 0.0949 µM, first compound 10 µM
[37] = second compound 0.3 µM, first compound 0.0316 µM
[38] = second compound 0.3 µM, first compound 0.1 µM
[39] = second compound 0.3 µM, first compound 0.316 µM
[40] = second compound 0.3 µM, first compound 1 µM
[41] = second compound 0.3 µM, first compound 3.16 µM
[42] = second compound 0.3 µM, first compound 10 µM
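Further: spheroids exposed to compounds for 7 days.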
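Wherever viability, T/C is given: 100% = DMSO vehicle control viability.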

SMILES: Cc1nc(N2CCC3(CC2)COC(C)C3N)c(CO)nc1Sc1ccnc(N)c1Cl (stereo not drawn) + CCn1c(-c2cccnc2C(C)OC)c2c3cc(ccc31)N1CCOC(CC(NC(=O)C(C(C)C)N(C)C(=O)C3(F)CCN(C(=O)C#CC(C)(C)N(C)C)CC3)C(=O)N3CCCC(N3)C(=O)OCC(C)(C)C2)C1
IC50 [1]: < 31.6 nM
IC50 [2]: < 31.6 nM
IC50 [3]: < 31.6 nM
IC50 [4]: < 31.6 nM
IC50 [5]: < 31.6 nM
IC50 [6]: < 31.6 nM
viability, T/C [7]: 23.6%
viability, T/C [8]: 22.8%
viability, T/C [9]: 17.9%
viability, T/C [10]: 17.6%
viability, T/C [11]: 16.4%
viability, T/C [12]: 17.5%
viability, T/C [13]: 20.9%
viability, T/C [14]: 18.5%
viability, T/C [15]: 17.1%
viability, T/C [16]: 17.9%
viability, T/C [17]: 15.9%
viability, T/C [18]: 23.2%
viability, T/C [19]: 20%
viability, T/C [20]: 16.3%
viability, T/C [21]: 15.8%
viability, T/C [22]: 14.1%
viability, T/C [23]: 16.4%
viability, T/C [24]: 13.6%
viability, T/C [25]: 20.8%
viability, T/C [26]: 15.6%
viability, T/C [27]: 12.8%
viability, T/C [28]: 14.9%
viability, T/C [29]: 13.5%
viability, T/C [30]: 13.8%
viability, T/C [31]: 15.6%
viability, T/C [32]: 13.4%
viability, T/C [33]: 13.9%
viability, T/C [34]: 11.9%
viability, T/C [35]: 15.6%
viability, T/C [36]: 14.2%
viability, T/C [37]: 17.5%
viability, T/C [38]: 13.9%
viability, T/C [39]: 14.9%
viability, T/C [40]: 12.5%
viability, T/C [41]: 17.3%
viability, T/C [42]: 18.8%

SMILES: CC1(O)CCCC1n1c(=O)c(C(F)F)cc2cnc(NC3CCN(S(C)(=O)=O)CC3)nc21 (stereo not drawn) + CCn1c(-c2cccnc2C(C)OC)c2c3cc(ccc31)N1CCOC(CC(NC(=O)C(C(C)C)N(C)C(=O)C3(F)CCN(C(=O)C#CC(C)(C)N(C)C)CC3)C(=O)N3CCCC(N3)C(=O)OCC(C)(C)C2)C1
IC50 [1]: < 31.6 nM
IC50 [2]: < 31.6 nM
IC50 [3]: < 31.6 nM
IC50 [4]: < 31.6 nM
IC50 [5]: < 31.6 nM
IC50 [6]: < 31.6 nM
viability, T/C [7]: 28.6%
viability, T/C [8]: 30.5%
viability, T/C [9]: 29.6%
viability, T/C [10]: 31.9%
viability, T/C [11]: 40.8%
viability, T/C [12]: 38.2%
viability, T/C [13]: 24.8%
viability, T/C [14]: 34.6%
viability, T/C [15]: 24.7%
viability, T/C [16]: 27.1%
viability, T/C [17]: 29.8%
viability, T/C [18]: 38.2%
viability, T/C [19]: 25.3%
viability, T/C [20]: 24.8%
viability, T/C [21]: 25.2%
viability, T/C [22]: 26.8%
viability, T/C [23]: 34.3%
viability, T/C [24]: 45.2%
viability, T/C [25]: 22.9%
viability, T/C [26]: 20.5%
viability, T/C [27]: 23.5%
viability, T/C [28]: 23%
viability, T/C [29]: 29.7%
viability, T/C [30]: 45.4%
viability, T/C [31]: 21.1%
viability, T/C [32]: 20.5%
viability, T/C [33]: 22.4%
viability, T/C [34]: 22%
viability, T/C [35]: 29.9%
viability, T/C [36]: 43.5%
viability, T/C [37]: 15.5%
viability, T/C [38]: 19.8%
viability, T/C [39]: 19%
viability, T/C [40]: 20.5%
viability, T/C [41]: 24.9%
viability, T/C [42]: 47.3%

SMILES: CCN1CCN(Cc2ccc(Nc3ncc(F)c(-c4cc(F)c5nc(C)n(C(C)C)c5c4)n3)nc2)CC1
viability, T/C (compound 0.00316 µM): 93% [middle of 4 runs]
viability, T/C (compound 0.0316 µM): 90.8% [middle of 4 runs]
viability, T/C (compound 0.1 µM): 77.8% [middle of 4 runs]
viability, T/C (compound 0.316 µM): 78% [middle of 4 runs]
viability, T/C (compound 1 µM): 87.2% [middle of 4 runs]
IC50 (curve of compound): > 1000 nM

More lines, main results first:

IC50 (curve of first compound, second compound 0.00316 µM): < 0.316 nM
IC50 (curve of first compound, second compound 0.01 µM): < 0.316 nM
IC50 (curve of first compound, second compound 0.0316 µM): < 0.316 nM
IC50 (curve of first compound, second compound 0.1 µM): < 0.316 nM
IC50 (curve of first compound, second compound 0.316 µM): < 0.316 nM
IC50 (curve of first compound, second compound 1 µM): < 0.316 nM
SMILES: CC(C)n1nc(-c2ccc3oc(N)nc3c2)c2c(N)ncnc21 + C=CC(=O)N1CCN(c2nc(OCC3CCCN3C)nc3c(F)c(-c4nc(N)cc(C)c4C(F)(F)F)c(Cl)cc23)C(C)C1
viability, T/C (second compound 0.00316 µM, first compound 0.000316 µM): 34.9%
viability, T/C (second compound 0.00316 µM, first compound 0.001 µM): 35.1%
viability, T/C (second compound 0.00316 µM, first compound 0.00316 µM): 30.5%
viability, T/C (second compound 0.00316 µM, first compound 0.01 µM): 23.2%
viability, T/C (second compound 0.00316 µM, first compound 0.0316 µM): 18.3%
viability, T/C (second compound 0.00316 µM, first compound 0.1 µM): 14.8%
viability, T/C (second compound 0.01 µM, first compound 0.000316 µM): 30.3%
viability, T/C (second compound 0.01 µM, first compound 0.001 µM): 28.9%
viability, T/C (second compound 0.01 µM, first compound 0.00316 µM): 22.9%
viability, T/C (second compound 0.01 µM, first compound 0.01 µM): 19.9%
viability, T/C (second compound 0.01 µM, first compound 0.0316 µM): 14.3%
viability, T/C (second compound 0.01 µM, first compound 0.1 µM): 14.1%
viability, T/C (second compound 0.0316 µM, first compound 0.000316 µM): 29.9%
viability, T/C (second compound 0.0316 µM, first compound 0.001 µM): 26.5%
viability, T/C (second compound 0.0316 µM, first compound 0.00316 µM): 23.4%
viability, T/C (second compound 0.0316 µM, first compound 0.01 µM): 18.2%
viability, T/C (second compound 0.0316 µM, first compound 0.0316 µM): 14%
viability, T/C (second compound 0.0316 µM, first compound 0.1 µM): 12.3%
viability, T/C (second compound 0.1 µM, first compound 0.000316 µM): 25.5%
viability, T/C (second compound 0.1 µM, first compound 0.001 µM): 22.9%
viability, T/C (second compound 0.1 µM, first compound 0.00316 µM): 18.1%
viability, T/C (second compound 0.1 µM, first compound 0.01 µM): 18.3%
viability, T/C (second compound 0.1 µM, first compound 0.0316 µM): 16.8%
viability, T/C (second compound 0.1 µM, first compound 0.1 µM): 11.3%
viability, T/C (second compound 0.316 µM, first compound 0.000316 µM): 25%
viability, T/C (second compound 0.316 µM, first compound 0.001 µM): 20.9%
viability, T/C (second compound 0.316 µM, first compound 0.00316 µM): 20.6%
viability, T/C (second compound 0.316 µM, first compound 0.01 µM): 18.1%
viability, T/C (second compound 0.316 µM, first compound 0.0316 µM): 13.6%
viability, T/C (second compound 0.316 µM, first compound 0.1 µM): 10.5%
viability, T/C (second compound 1 µM, first compound 0.000316 µM): 21.3%
viability, T/C (second compound 1 µM, first compound 0.001 µM): 20.2%
viability, T/C (second compound 1 µM, first compound 0.00316 µM): 24.6%
viability, T/C (second compound 1 µM, first compound 0.01 µM): 17.2%
viability, T/C (second compound 1 µM, first compound 0.0316 µM): 17.3%
viability, T/C (second compound 1 µM, first compound 0.1 µM): 13.8%

IC50 (curve of compound): > 1000 nM
SMILES: C=CC(=O)Nc1cc(Nc2nccc(-c3cn(C)c4ccccc34)n2)c(OC)cc1N(C)CCN(C)C
viability, T/C (compound 0.00316 µM): 106% [middle of 4 runs]
viability, T/C (compound 0.01 µM): 74.7% and 114% (2×) and 81.9%
viability, T/C (compound 0.0316 µM): 87.1% [middle of 4 runs]
viability, T/C (compound 0.316 µM): 77.7% [middle of 4 runs]

IC50 (curve of compound): > 10000 nM
SMILES: CC(=O)OC12COC1CC(O)C1(C)C(=O)C(O)C3=C(C)C(OC(=O)C(O)C(NC(=O)OC(C)(C)C)c4ccccc4)CC(O)(C(OC(=O)c4ccccc4)C21)C3(C)C (stereo not drawn)
viability, T/C (compound 0.0316 µM): 60% [middle of 4 runs]
viability, T/C (compound 0.1 µM): 71.8% [middle of 4 runs]
viability, T/C (compound 0.316 µM): 71.4% [middle of 4 runs]
viability, T/C (compound 1 µM): 78.2% [middle of 4 runs]
viability, T/C (compound 10 µM): 77.4% [middle of 4 runs]
